Common to all, as to type: cell-based
The subject of experiment [1] is Acinetobacter baumannii XNWB 0007. Kind of experiment: MIC assay of test compounds combined with ceftazidime (8 μg/mL). To be noted: ceftazidime 8 μg/mL fixed. How it is done: (§1) The bacterial strains used for the minimum inhibitory concentration (MIC) test were frozen in a −80° C. ULT freezer and thawed 2 days before use. A small amount of frozen bacterial strains were scraped using a sterile inoculating loop, streaked onto a TSA solid culture dish for inoculation, and then cultured for 20-24 h at 35±2° C. in a normal atmospheric environment. 5-10 colonies with similar morphology were picked from the culture dish using a sterile inoculating loop and then re-streaked onto a suitable solid culture dish. Then the dish was placed into a normal incubator for culture for 20-24 h at 35±2° C. 5-10 single bacterial colonies were picked from the solid culture dish, resuspended in 500 μL of 0.9% NaCl, and adjusted to an OD600 of 0.1-0.15 with a spectrophotometer. The bacteria were then diluted 300-fold with 1.1×CAMHB. […] Dilution of test compounds: […] 2 μL of each compound in the dilution master plate of the test compounds was transferred to the corresponding well of the assay plates. In the mean time, 2 μL of 100% DMSO was transferred to the compound-free wells (GC and SC wells). (1) 8 μL of imipenem in the additive plate of imipenem was transferred to the corresponding wells of the assay plates; (2) 8 μL of ceftazidime in the additive plate of ceftazidime was transferred to the corresponding wells of the assay plates; (3) 8 μL of ampicillin in the additive plate of ampicillin was transferred to the corresponding wells of the assay plates. 90 μL of corresponding bacterial inocula were added to wells (except for SC wells) of the assay plates. After addition, the 6 assay plates were covered by sterile covers. The mixtures in the assay plates were centrifuged by a centrifuge at 1000 rpm for 30 s, and mixed uniformly by oscillating with a microplate oscillator at 800 rpm for 1 min, and then cultured in a common incubator for 16-20 h at 35±2° C. The minimum inhibitory concentration of each compound was recorded by reference to guidelines from the Clinical and Laboratory Standards Institute. […] The effect of the test compounds in combination with imipenem, ceftazidime, and ampicillin was also tested. […] The bacterial inocula in the assay plates were resuscitated from TSA and diluted in CAMHB, while growth controls (GC wells) and sterile controls (SC wells) were set up in the assay plates. The minimum inhibitory concentration of each compound combination against different bacteria was observed and recorded after the assay plates were incubated in a common incubator at 35±2° C. for 16-20 h, and the results are shown in Tables 1-3.

For experiment [2], the system named is Klebsiella pneumoniae XNWB 0001. The experiment is described as above. The settings on record: ceftazidime 8 μg/mL fixed. As for the experimental part:
as §1

Experiment [3] deals with Klebsiella pneumoniae XNWB 0002. The description is as above. The settings on record: ceftazidime 8 μg/mL fixed. As for the experimental part: as §1
Experiment [4] relates to Klebsiella pneumoniae XNWB 0003. The description is as above. To be noted: ceftazidime 8 μg/mL fixed. As for the experimental part: as §1
Experiment [5] deals with Klebsiella pneumoniae XNWB 0004. The description is as above. The settings on record: ceftazidime 8 μg/mL fixed. As for the experimental part: as §1
For experiment [6], the system named is Klebsiella pneumoniae XNWB 0005. The description is as above. To be noted: ceftazidime 8 μg/mL fixed. How it is done: as §1
Experiment [7] relates to Klebsiella pneumoniae XNWB 0006. Described as above. To be noted: ceftazidime 8 μg/mL fixed. How it is done: as §1
Experiment [8] has as its system Pseudomonas aeruginosa XNWB 0008. The experiment is described as above. To be noted: ceftazidime 8 μg/mL fixed. How it is done: as §1
Experiment [9] relates to Acinetobacter baumannii XNWB 0007. Kind of experiment: MIC assay of test compounds combined with imipenem (4 μg/mL). To be noted: imipenem 4 μg/mL fixed. As for the experimental part:
as §1

Experiment [10] concerns Klebsiella pneumoniae XNWB 0001. Described as above. To be noted: imipenem 4 μg/mL fixed. How it is done: as §1
For experiment [11], the system named is Klebsiella pneumoniae XNWB 0002. The experiment is described as above. The settings on record: imipenem 4 μg/mL fixed. As for the experimental part:
as §1

Experiment [12] has as its system Klebsiella pneumoniae XNWB 0003. Described as above. The settings on record: imipenem 4 μg/mL fixed. How it is done: as §1
Experiment [13] has as its system Klebsiella pneumoniae XNWB 0004. The experiment is described as above. To be noted: imipenem 4 μg/mL fixed. How it is done: as §1
Experiment [14] relates to Klebsiella pneumoniae XNWB 0005. The description is as above. To be noted: imipenem 4 μg/mL fixed. As for the experimental part:
as §1

In experiment [15] the test system is Klebsiella pneumoniae XNWB 0006. The experiment is described as above. The settings on record: imipenem 4 μg/mL fixed. How it is done:
as §1

For experiment [16], the system named is Pseudomonas aeruginosa XNWB 0008. The experiment is described as above. To be noted: imipenem 4 μg/mL fixed. How it is done: as §1

Molecules are shown by their SMILES. Counter-ions that a name gives are not always drawn.

Consider `N=C(N)NC[C@H](O)c1nnc([C@@H]2CC3(CC3)[C@@H]3CN2C(=O)N3OS(=O)(=O)O)o1` [Example 12, (1R,4S)-4-(5-((S)-2-guanidyl-1-hydroxyethyl)-1,3,4-oxadiazol-2-yl)-6-oxo-5,7-diazaspiro[bicyclo[3.2.1]octane-2,1′-cyclopropan]-7-yl sulfate], for which the “The minimum concentration of test compounds combined with ceftazidime (8 μg/mL) for bacteriostasis” value in experiment [1] is “C (C: 16-128 μg/mL)”; in experiment [2], “B (B: 8-16 μg/mL)”; in experiment [3], “A (A: <8 μg/mL)”; in experiment [4], “A (A: <8 μg/mL)”; in [5] it was “B (B: 8-16 μg/mL)”; in experiment [6], “A (A: <8 μg/mL)”. The “The minimum concentration of test compounds combined with ceftazidime (8 μg/mL) for bacteriostasis” value is listed as “A (A: <8 μg/mL)” in experiment [7] and “C (C: 16-128 μg/mL)” in experiment [8]. The “The minimum concentration of test compounds combined with imipenem (4 μg/mL) for bacteriostasis” value was “B (B: 8-16 μg/mL)” in [9]; “A (A: <8 μg/mL)” in experiment [10]; “A (A: <8 μg/mL)” in [11]; “A (A: <8 μg/mL)” in [12]; “A (A: <8 μg/mL)” in experiment [13]; “A (A: <8 μg/mL)” in [14]. In addition, the “The minimum concentration of test compounds combined with imipenem (4 μg/mL) for bacteriostasis” value was “A (A: <8 μg/mL)” in [15] and “B (B: 8-16 μg/mL)” in experiment [16].
For the compound `N=C1NCC(c2nnc([C@@H]3CC4(CC4)[C@@H]4CN3C(=O)N4OS(=O)(=O)O)o2)N1` (stereo partly drawn) [Example 8, (1R,4S)-4-(5-(2-iminoimidazolidin-4-yl)-1,3,4-oxadiazol-2-yl)-6-oxo-5,7-diazaspiro [bicyclo[3.2.1]octane-2,1′-cyclopropan]-7-yl sulfate], the “The minimum concentration of test compounds combined with ceftazidime (8 μg/mL) for bacteriostasis” value in [1] is given as “C (C: 16-128 μg/mL)”; in experiment [2], “A (A: <8 μg/mL)”; in experiment [3], “A (A: <8 μg/mL)”; in experiment [4], “A (A: <8 μg/mL)”; in experiment [5] it was “A (A: <8 μg/mL)”; in [6], “A (A: <8 μg/mL)”. Moreover, the figures for the “The minimum concentration of test compounds combined with ceftazidime (8 μg/mL) for bacteriostasis” value in [7] and in experiment [8] were “A (A: <8 μg/mL)” and “B (B: 8-16 μg/mL)”, respectively. The “The minimum concentration of test compounds combined with imipenem (4 μg/mL) for bacteriostasis” value in experiment [9], in [10], in experiment [11], in experiment [12], in experiment [13] and in experiment [14] was “A (A: <8 μg/mL)” throughout. Moreover, the “The minimum concentration of test compounds combined with imipenem (4 μg/mL) for bacteriostasis” value in [15] and in experiment [16] was “A (A: <8 μg/mL)” in each case.
As for `O=C(NC1CCNCC1)[C@@H]1CC[C@@H]2CN1C(=O)N2OS(=O)(=O)O` [Relebactam, reference compound], the “The minimum concentration of test compounds combined with ceftazidime (8 μg/mL) for bacteriostasis” value in experiment [1] is “C (C: 16-128 μg/mL)”; in [2], “A (A: <8 μg/mL)”; in experiment [3] it was “A (A: <8 μg/mL)”; in [4], “A (A: <8 μg/mL)”; in [5], “A (A: <8 μg/mL)”; in [6] it was “A (A: <8 μg/mL)”. The “The minimum concentration of test compounds combined with ceftazidime (8 μg/mL) for bacteriostasis” value in experiment [7] and in experiment [8] was “A (A: <8 μg/mL)” in each case. The “The minimum concentration of test compounds combined with imipenem (4 μg/mL) for bacteriostasis” value in [9] is on record as “C (C: 16-128 μg/mL)”; in [10], “A (A: <8 μg/mL)”; in experiment [11] it was “A (A: <8 μg/mL)”; in [12], “A (A: <8 μg/mL)”; in experiment [13], “A (A: <8 μg/mL)”; in [14], “A (A: <8 μg/mL)”. In addition, the “The minimum concentration of test compounds combined with imipenem (4 μg/mL) for bacteriostasis” value in experiment [15] and in experiment [16] was “A (A: <8 μg/mL)” throughout.
Regarding `NCCCCc1nnc([C@@H]2CC3(CC3)[C@@H]3CN2C(=O)N3OS(=O)(=O)O)o1` [Example 7, (1R,4S)-4-(5-(4-aminobutyl)-1,3,4-oxadiazol-2-yl)-6-oxo-5,7-diazaspiro[bicycle[3.2.1]octane-2,1′-cyclopropan]-7-yl sulfate], the “The minimum concentration of test compounds combined with ceftazidime (8 μg/mL) for bacteriostasis” value was “C (C: 16-128 μg/mL)” in [1]; “B (B: 8-16 μg/mL)” in [2]; “A (A: <8 μg/mL)” in [3]; “B (B: 8-16 μg/mL)” in experiment [4]; “B (B: 8-16 μg/mL)” in [5]; “B (B: 8-16 μg/mL)” in experiment [6]. For the same compound, the “The minimum concentration of test compounds combined with ceftazidime (8 μg/mL) for bacteriostasis” value in [7] is given as “A (A: <8 μg/mL)”; in experiment [8], “C (C: 16-128 μg/mL)”. Also, the “The minimum concentration of test compounds combined with imipenem (4 μg/mL) for bacteriostasis” value in [9] is given as “B (B: 8-16 μg/mL)”; in [10], “A (A: <8 μg/mL)”; in experiment [11] it was “A (A: <8 μg/mL)”; in experiment [12], “A (A: <8 μg/mL)”; in [13], “A (A: <8 μg/mL)”; in [14], “A (A: <8 μg/mL)”. The “The minimum concentration of test compounds combined with imipenem (4 μg/mL) for bacteriostasis” value is given as “A (A: <8 μg/mL)” in [15] and “B (B: 8-16 μg/mL)” in [16].

Source of the values: patent US11078202B2, “β-lactamase inhibitor and use thereof” (priority 2018, dated 2021).
